Experimental data as given in US10131652B2, “Pyrimidinyloxy benzene derivatives as herbicides” (E. I. DU PONT DE NEMOURS AND COMPANY, priority 2014, dated 2018).
Where two headings read alike, the source gives them in different places.

Legend:
Format in all cases: in vivo
[1] = tested on: galium (catchweed bedstraw, Galium aparine); test: Test B postemergence plant response
Method in brief: (§1)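 Plants grown in pots of loam soil–sand blend were sprayed postemergence with formulated test chemicals at 2 to 10 cm height, one- to two-leaf stage. After about 10 days in a greenhouse, injury was visually rated against untreated controls on a 0 to 100 scale (0 no effect, 100 complete control).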

[2] = tested on: blackgrass (Alopecurus myosuroides); test: Test B postemergence plant response
Method in brief: as §1

[3] = tested on: ragweed (common ragweed, Ambrosia elatior); test: Test B pre-/postemergence plant response
Method in brief: (§2)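 Visual injury rating, 0 (no effect) to 100 (complete control), vs untreated controls after ~10 d greenhouse. Pre: directed soil spray after planting in loam/sand. Post: plants 2–10 cm, 1–2 leaf stage. Compound in non-phytotoxic solvent plus surfactant.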

[4] = tested on: barnyardgrass (Echinochloa crus-galli); test: Test B pre-/postemergence plant response
Method in brief: as §2

corn (Zea mays) = test: Test B pre-/postemergence plant response
Method in brief: as §2

[5] = tested on: wheat (Triticum aestivum); test: Test B pre-/postemergence plant response
Method in brief: as §2

[6] = tested on: pigweed (Amaranthus retroflexus); test: Test B pre-/postemergence plant response
Method in brief: as §2

[7] = tested on: giant foxtail (Setaria faberii); test: Test B pre-/postemergence plant response
Method in brief: as §2

[8] = tested on: Italian ryegrass (Lolium multiflorum); test: Test B pre-/postemergence plant response
Method in brief: as §2

kochia (Kochia scoparia) [9] = test: Test B pre-/postemergence plant response
Method in brief: as §2

[10] = tested on: barnyardgrass (Echinochloa crus-galli); test: Test C flooded paddy test plant response; details: Flood, 250 g ai/ha, scale of 0 to 100 where 0 is no effect and 100 is complete control, 13 to 15 days
Method in brief: (§3)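 Flooded-pot format, 3 cm water over soil maintained for the test duration; test compounds dispensed into the water at the 2-leaf stage. Greenhouse holding 13 to 15 days. Plants evaluated visually relative to untreated controls, 0 meaning no effect and 100 complete control.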

rice (Oryza sativa) = test: Test C flooded paddy test plant response; details: Flood, 250 g ai/ha, scale of 0 to 100 where 0 is no effect and 100 is complete control, 13 to 15 days
Method in brief: as §3

[11] = tested on: ducksalad (Heteranthera limosa); test: Test C flooded paddy test plant response; details: Flood, 250 g ai/ha, scale of 0 to 100 where 0 is no effect and 100 is complete control, 13 to 15 days
Method in brief: as §3

[12] = tested on: small-flower umbrella sedge (Cyperus difformis); test: Test C flooded paddy test plant response; details: Flood, 250 g ai/ha, scale of 0 to 100 where 0 is no effect and 100 is complete control, 13 to 15 days
Method in brief: as §3

[13] = tested on: chickweed (common chickweed, Stellaria media); test: Test D postemergence plant response
Method in brief: (§4)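 Plants grown in pots of peat moss–vermiculite medium with wetting agent and starter nutrients received postemergence applications of the formulated test chemicals at 2 to 18 cm height (1- to 4-leaf stage). After 13 to 15 days in a greenhouse, injury was scored visually against untreated controls, 0 (no effect) to 100 (complete control).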

wild oat (Avena fatua) = test: Test D postemergence plant response
Method in brief: as §4

kochia (Kochia scoparia) [14] = test: Test D postemergence plant response
Method in brief: as §4

[15] = 125 g ai/ha, postemergence, 0 to 100 scale, 0 no effect, 100 complete control
[16] = Postemergence, 500 g ai/ha, 0 to 100 scale (0 no effect, 100 complete control)
[17] = Preemergence, 125 g ai/ha, 0 to 100 scale (0 no effect, 100 complete control)
[18] = Preemergence, 500 g ai/ha, 0 to 100 scale where 0 is no effect and 100 is complete control
[19] = 31 g ai/ha, scale 0 to 100 (0 no effect, 100 complete control)
[20] = 62 g ai/ha, scale 0 to 100, 0 no effect, 100 complete control
[21] = 125 g ai/ha, scale 0 to 100, 0 no effect, 100 complete control

Fc1cccc(Oc2ncc(Cl)cn2)c1-c1cc(C(F)(F)F)on1 [Compound 168, 5-chloro-2-[2-[5-(trifluoromethyl)-3-isoxazolyl]-3-fluorophenoxy]pyrimidine]
Plant response rating, Galium [1, 15]: 100
Plant response rating, Galium [1, 16]: 100
Plant response rating, Blackgrass [2, 15]: 90
Plant response rating, Blackgrass [2, 16]: 90
Plant response rating, Ragweed [3, 15]: 90
Plant response rating, Ragweed [3, 16]: 90
Ragweed plant response rating [3, 17]: 70
Plant response rating, Ragweed [3, 18]: 80
pest or weed control at 125 g/ha ([4]; Echinochloa crus-galli, post-emergence, 240 h, 125 g ai/ha, postemergence, 0 to 100 scale, 0 no effect, 100 complete control, read-out: Plant response rating, Barnyardgrass): 100%
pest or weed control at 500 g/ha ([4]; Echinochloa crus-galli, post-emergence, 240 h, Postemergence, 500 g ai/ha, 0 to 100 scale (0 no effect, 100 complete control), read-out: Plant response rating, Barnyardgrass): 100%
pest or weed control at 500 g/ha ([4]; Echinochloa crus-galli, pre-emergence, 240 h, Preemergence, 500 g ai/ha, 0 to 100 scale where 0 is no effect and 100 is complete control, read-out: Plant response rating, Barnyardgrass): 100%
Barnyardgrass plant response rating [4, 17]: 100
Corn plant response rating (crop injury, 0 = no effect, 100 = complete kill) at 125 g/ha (corn (Zea mays); Zea mays, post-emergence, 240 h, 125 g ai/ha, postemergence, 0 to 100 scale, 0 no effect, 100 complete control): 100%
Corn plant response rating (crop injury, 0 = no effect, 100 = complete kill) at 500 g/ha (corn (Zea mays); Zea mays, post-emergence, 240 h, Postemergence, 500 g ai/ha, 0 to 100 scale (0 no effect, 100 complete control)): 100%
plant injury at 125 g/ha ([5]; Triticum aestivum, post-emergence, 240 h, 125 g ai/ha, postemergence, 0 to 100 scale, 0 no effect, 100 complete control, read-out: Plant response rating, Wheat): 100%
plant injury at 500 g/ha ([5]; Triticum aestivum, post-emergence, 240 h, Postemergence, 500 g ai/ha, 0 to 100 scale (0 no effect, 100 complete control), read-out: Plant response rating, Wheat): 100%
pest or weed control at 125 g/ha ([6]; Amaranthus retroflexus, post-emergence, 240 h, 125 g ai/ha, postemergence, 0 to 100 scale, 0 no effect, 100 complete control, read-out: Plant response rating, Pigweed): 100%
pest or weed control at 500 g/ha ([6]; Amaranthus retroflexus, post-emergence, 240 h, Postemergence, 500 g ai/ha, 0 to 100 scale (0 no effect, 100 complete control), read-out: Plant response rating, Pigweed): 100%
pest or weed control at 500 g/ha ([6]; Amaranthus retroflexus, pre-emergence, 240 h, Preemergence, 500 g ai/ha, 0 to 100 scale where 0 is no effect and 100 is complete control, read-out: Plant response rating, Pigweed): 100%
Pigweed plant response rating [6, 17]: 100
Foxtail, Giant plant response rating [7, 17]: 100
pest or weed control at 125 g/ha ([7]; Setaria faberi, post-emergence, 240 h, 125 g ai/ha, postemergence, 0 to 100 scale, 0 no effect, 100 complete control, read-out: Plant response rating, Foxtail, Giant): 100%
pest or weed control at 500 g/ha ([7]; Setaria faberi, post-emergence, 240 h, Postemergence, 500 g ai/ha, 0 to 100 scale (0 no effect, 100 complete control), read-out: Plant response rating, Foxtail, Giant): 100%
pest or weed control at 500 g/ha ([7]; Setaria faberi, pre-emergence, 240 h, Preemergence, 500 g ai/ha, 0 to 100 scale where 0 is no effect and 100 is complete control, read-out: Plant response rating, Foxtail, Giant): 100%
Plant response rating, Ryegrass, Italian [8, 15]: 90
Plant response rating, Ryegrass, Italian [8, 16]: 90
Ryegrass, Italian plant response rating [8, 17]: 80
Plant response rating, Ryegrass, Italian [8, 18]: 100
Plant response rating, Kochia (kochia (Kochia scoparia) [9]; [15]): 90
Plant response rating, Kochia (kochia (Kochia scoparia) [9]; [16]): 90
Kochia plant response rating (kochia (Kochia scoparia) [9]; [17]): 100
Plant response rating, Kochia (kochia (Kochia scoparia) [9]; [18]): 100
pest or weed control at 250 g/ha ([10]; Echinochloa crus-galli, read-out: Barnyardgrass plant response rating): 90%
plant injury at 250 g/ha (rice (Oryza sativa); Oryza sativa, read-out: Rice plant response rating): 40%
pest or weed control at 250 g/ha ([11]; Heteranthera limosa, read-out: Ducksalad plant response rating): 90%
pest or weed control at 250 g/ha ([12]; Cyperus difformis, read-out: Sedge, Umbrella plant response rating): 90%
pest or weed control at 16 g/ha ([13]; Stellaria media, post-emergence, 16 g ai/ha, scale 0 to 100 (0 no effect, 100 complete control), read-out: Chickweed plant response rating): 65%
pest or weed control at 31 g/ha ([13]; Stellaria media, post-emergence, 31 g ai/ha, scale 0 to 100 (0 no effect, 100 complete control), read-out: Chickweed plant response rating): 98%
pest or weed control at 62 g/ha ([13]; Stellaria media, post-emergence, 62 g ai/ha, scale 0 to 100, 0 no effect, 100 complete control, read-out: Plant response rating, Chickweed): 100%
pest or weed control at 125 g/ha ([13]; Stellaria media, post-emergence, 125 g ai/ha, scale 0 to 100, 0 no effect, 100 complete control, read-out: Plant response rating, Chickweed): 100%
pest or weed control at 31 g/ha (wild oat (Avena fatua); Avena fatua, post-emergence, 31 g ai/ha, scale 0 to 100 (0 no effect, 100 complete control), read-out: Oat, Wild plant response rating): 10%
pest or weed control at 62 g/ha (wild oat (Avena fatua); Avena fatua, post-emergence, 62 g ai/ha, scale 0 to 100, 0 no effect, 100 complete control, read-out: Plant response rating, Oat, Wild): 20%
pest or weed control at 125 g/ha (wild oat (Avena fatua); Avena fatua, post-emergence, 125 g ai/ha, scale 0 to 100, 0 no effect, 100 complete control, read-out: Plant response rating, Oat, Wild): 30%
pest or weed control at 31 g/ha (kochia (Kochia scoparia) [14]; Bassia scoparia, post-emergence, 31 g ai/ha, scale 0 to 100 (0 no effect, 100 complete control), read-out: Kochia plant response rating): 100%
pest or weed control at 62 g/ha (kochia (Kochia scoparia) [14]; Bassia scoparia, post-emergence, 62 g ai/ha, scale 0 to 100, 0 no effect, 100 complete control, read-out: Plant response rating, Kochia): 100%
pest or weed control at 125 g/ha (kochia (Kochia scoparia) [14]; Bassia scoparia, post-emergence, 125 g ai/ha, scale 0 to 100, 0 no effect, 100 complete control, read-out: Plant response rating, Kochia): 100%

FC(F)(F)c1cc(-c2c(Cl)cccc2Oc2ncc(Cl)cn2)no1 [Compound 169]
Plant response rating, Galium [1, 15]: 100
Plant response rating, Galium [1, 16]: 100
Plant response rating, Blackgrass [2, 15]: 50
Plant response rating, Blackgrass [2, 16]: 90
Plant response rating, Ragweed [3, 15]: 20
Plant response rating, Ragweed [3, 16]: 30
Ragweed plant response rating [3, 17]: 10
Plant response rating, Ragweed [3, 18]: 20
Plant response rating, Barnyardgrass [4, 15]: 10
Plant response rating, Barnyardgrass [4, 16]: 30
Barnyardgrass plant response rating [4, 17]: 20
Plant response rating, Barnyardgrass [4, 18]: 30
Plant response rating, Corn (corn (Zea mays); [15]): 10
Plant response rating, Corn (corn (Zea mays); [16]): 20
Plant response rating, Wheat [5, 15]: 0
Plant response rating, Wheat [5, 16]: 0
Plant response rating, Pigweed [6, 15]: 100
Plant response rating, Pigweed [6, 16]: 100
Pigweed plant response rating [6, 17]: 100
Plant response rating, Pigweed [6, 18]: 100
Plant response rating, Foxtail, Giant [7, 15]: 30
Plant response rating, Foxtail, Giant [7, 16]: 60
Foxtail, Giant plant response rating [7, 17]: 50
Plant response rating, Foxtail, Giant [7, 18]: 90
Plant response rating, Ryegrass, Italian [8, 15]: 20
Plant response rating, Ryegrass, Italian [8, 16]: 50
Ryegrass, Italian plant response rating [8, 17]: 0
Plant response rating, Ryegrass, Italian [8, 18]: 20
Plant response rating, Kochia (kochia (Kochia scoparia) [9]; [15]): 90
Plant response rating, Kochia (kochia (Kochia scoparia) [9]; [16]): 90
Kochia plant response rating (kochia (Kochia scoparia) [9]; [17]): 70
Plant response rating, Kochia (kochia (Kochia scoparia) [9]; [18]): 90
Barnyardgrass plant response rating [10]: 0
Rice plant response rating (rice (Oryza sativa)): 0
Ducksalad plant response rating [11]: 0
Sedge, Umbrella plant response rating [12]: 0
Chickweed plant response rating ([13]; 16 g ai/ha, scale 0 to 100 (0 no effect, 100 complete control)): 5
Chickweed plant response rating [13, 19]: 40
Plant response rating, Chickweed [13, 20]: 70
Plant response rating, Chickweed [13, 21]: 80
Oat, Wild plant response rating (wild oat (Avena fatua); [19]): 5
Plant response rating, Oat, Wild (wild oat (Avena fatua); [20]): 5
Plant response rating, Oat, Wild (wild oat (Avena fatua); [21]): 10
Kochia plant response rating (kochia (Kochia scoparia) [14]; [19]): 60
Plant response rating, Kochia (kochia (Kochia scoparia) [14]; [20]): 90
Plant response rating, Kochia (kochia (Kochia scoparia) [14]; [21]): 95
